From PMC3677616, “Interaction of Human Dopa Decarboxylase with L-Dopa: Spectroscopic and Kinetic Studies as a Function of pH” (BioMed Research International, 2013)

How the values were obtained:
[1] = target: T1, hDDC (human Dopa decarboxylase) (Homo sapiens, UniProt P20711); test: stopped-flow absorbance at […] nm, hyperbolic fit of kobs (two-step binding); settings: read-out: K1
T1 construct: gene DDC; homodimer
T1 sequence (P20711 1-480): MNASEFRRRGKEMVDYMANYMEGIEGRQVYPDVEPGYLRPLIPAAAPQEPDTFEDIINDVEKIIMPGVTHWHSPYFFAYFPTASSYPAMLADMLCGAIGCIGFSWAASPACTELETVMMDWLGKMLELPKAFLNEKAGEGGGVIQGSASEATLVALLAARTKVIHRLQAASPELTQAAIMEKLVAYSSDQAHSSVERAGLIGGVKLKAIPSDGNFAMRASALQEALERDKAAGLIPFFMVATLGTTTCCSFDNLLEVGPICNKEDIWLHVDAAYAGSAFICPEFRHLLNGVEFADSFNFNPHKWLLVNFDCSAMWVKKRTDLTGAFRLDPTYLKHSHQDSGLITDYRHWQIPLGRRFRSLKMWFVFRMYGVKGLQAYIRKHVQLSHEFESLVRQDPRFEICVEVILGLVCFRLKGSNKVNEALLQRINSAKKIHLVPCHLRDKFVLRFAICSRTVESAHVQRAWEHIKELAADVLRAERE

[2] = target: T1, hDDC (human Dopa decarboxylase); test: quenching of intrinsic fluorescence of apoenzyme, tight-binding quadratic fit; settings: read-out: KD(PLP)
[3] = substrate: N[C@@H](Cc1ccc(O)c(O)c1)C(=O)O; test: steady-state decarboxylation, spectrophotometric assay, Michaelis-Menten fit; format: biochemical, Homo sapiens; settings: pH 6.0, 50 mM Bis-Tris-propane, 10 μM PLP, 25°C

## N[C@@H](Cc1ccc(O)c(O)c1)C(=O)O [L-Dopa]
[1]
  Kd: 320 ± 20 µM

## Cc1ncc(COP(=O)(O)O)c(C=O)c1O [PLP]
[2]
  Kd: 0.2 µM

B1: hDDC (human Dopa decarboxylase) (Homo sapiens) (protein)
chain: T1 sequence (P20711 1-480)
notes: homodimer
[3]
  Km: 230 ± 30 µM
  kcat: 3 s⁻¹
